# Measured values reported in patent EP4775208A1, “USE OF PRMT5 INHIBITOR IN TREATMENT OF TUMORS OR CANCERS” (Apeiron Therapeutics (Hong Kong) Ltd., priority 2023, dated 2025).
# Tested on: Human glioma U87-luc cells
# Assay: In vivo efficacy in U87 orthotopic xenograft model (bioluminescence imaging)
# Set-up: species or system BALB/c nude mice
# Settings: for Bioluminescence Signal (photons/sec), Mean: 30 mg/kg, PO, QD, U87-luc orthotopic
# Protocol: V. In Vivo Efficacy of Compounds of the Present Disclosure in U87 Orthotopic Xenograft Models
# Cell Culture: Human glioma U87-luc cells (Caliper-124577) were cultured as monolayers in vitro. The cells were maintained in EMEM supplemented with 10% fetal bovine serum (FBS), 100 U/mL penicillin, and 100 µg/mL streptomycin in an incubator at 37°C with 5% CO2. Routine subculturing was performed twice weekly using trypsin-EDTA. When the cells reached 80-90% confluence and the required cell number was achieved, the cells were harvested, counted, and prepared for inoculation.
# Animals: Female BALB/c nude mice, weighing 18-20 g. A total of 50 mice were obtained (target study size of 24 mice, with an […]). The animals were provided by Beijing Vital River Laboratory Animal Technology Co., Ltd.
# Tumor Inoculation: Prior to cell inoculation, each nude mouse was anesthetized via intraperitoneal injection of 1.25% avertin at a dose of 20 µL/g. The anesthetized mouse was fixed onto a stereotaxic instrument. The scalp was disinfected with 70% ethanol and covered with a sterile drape. A midline longitudinal incision (approximately 1 cm) was made to expose the skull. A small hole was drilled using a cranial drill at the coordinates 2 mm right and 0.5 mm anterior to the bregma. Using a microsyringe, 3 µL of U87-luc cell suspension (3.0×10^5 cells in PBS containing 20% Matrigel) was injected into the hole at a depth of 3.5 mm from the skull surface. The burr hole was sealed with tissue adhesive (or bone wax), the incision was sutured, and the skin was disinfected with povidone-iodine solution. The animals were kept warm on a heating pad during the recovery period and monitored until fully awake before being returned to their cages.
# Analgesia: For analgesia, Meloxicam (3 mg/kg) was injected subcutaneously 30 minutes prior to surgery and 24 hours post-surgery.
# Bioluminescence Imaging: Mice were weighed and administered D-luciferin (150 mg/kg) via intraperitoneal injection. Ten minutes post-injection, the mice were anesthetized using a mixture of oxygen and isoflurane. Once fully anesthetized, the animals were transferred to the IVIS Lumina III in vivo imaging system for detection. Bioluminescence measurements were acquired for all mice at 13 minutes post-injection. Whole-body bioluminescence, including metastatic tumors, was measured and images were captured. Imaging was performed on Day 7 post-inoculation and weekly thereafter following grouping and dosing (5 time points in total). The data are presented as bioluminescence signal values.
# Animal Grouping: Seven days after cell inoculation, 24 mice were selected from the total of 50 mice based on their bioluminescence values. Using an Excel-based stratified randomization procedure, the mice were divided into 3 groups (8 mice per group): the Vehicle group, the 15 mg/kg BID group, and the 30 mg/kg QD group.
# Experimental Endpoint: The experimental endpoint is animal survival.
# Monitoring and Data Analysis: Animals were monitored daily, and the time of death was recorded. […] If an animal's health deteriorated or it became moribund (characterized by significant weight loss >20%, inability to eat or drink normally, difficulty moving, or paralysis), it was considered a mortality event and immediately euthanized via CO2 inhalation.
# The Median Survival Time (MST, days) was calculated for each group. The Increase in Life-Span (ILS) was calculated by comparing the MST of the treatment group to that of the model control group, expressed as a percentage increase over the control group. The calculation is as follows: ILS(%) = (MSTt−MSTv)/MSTv × 100 [formula] Where: • MSTt: Median Survival Time of the treatment group • MSTv: Median Survival Time of the Vehicle group
# Tumor Growth Monitoring: Bioluminescence signal intensity was used to monitor intracranial tumor growth. Bioluminescence imaging was performed once or twice weekly. […]
structure (smiles),measurement,setting,value
"CN(C(=O)c1ccc2nc(N)c3cncn3c2c1)[C@@H]1COc2cc(C(F)(F)F)ccc21 [Example 107, (S)-4-amino-N-methy 1-N-(6-(trifluoromethy 1)-2,3-dihydrobenzofuran-3-yl)imidazo[1,5-a]quinoxaline-8-carboxamide]",Tumor Growth Inhibition (TGI) rate,"30 mg/kg once daily (QD) for 28 days, U87MG orthotopic mouse xenograft",exceeding 100%
same,"Bioluminescence Signal (photons/sec), Mean",day 0,5.837E+06 photons/sec
same,"Bioluminescence Signal (photons/sec), Mean",day 7,1.419E+06 photons/sec
same,"Bioluminescence Signal (photons/sec), Mean",day 14,1.930E+06 photons/sec
same,"Bioluminescence Signal (photons/sec), Mean",day 21,1.968E+06 photons/sec
same,"Bioluminescence Signal (photons/sec), Mean",day 28,2.412E+06 photons/sec
